Row | melting point | Structure (SMILES)
1 | 270 to 272 °C | Cc1cc2c(-c3cccc(C(=O)O)c3)c(CC(=O)Nc3ccc(Cl)cc3C(F)(F)F)c(=O)oc2cc1Cl [Example 1, 3-[7-chloro-3-[2-[[4-chloro-2-(trifluoromethyl)phenyl]amino]-2-oxoethyl]-6-methyl-2-oxo-2H-chromen-4-yl]benzoic acid]
2 | 278 to 280 °C | Cc1cc2c(-c3cccc(C(=O)O)c3)c(CC(=O)Nc3ccc(F)cc3C(F)(F)F)c(=O)oc2cc1Cl [Example 2]
3 | 160 to 162 °C | CCOC(=O)/C=C/c1cc(-c2c(CC(=O)Nc3ccc(Cl)cc3C(F)(F)F)c(=O)oc3cc(Cl)c(C)cc23)ccc1F [Example 3, ethyl (2E)-3-[5-[7-chloro-3-[2-[[4-chloro-2-(trifluoromethyl)phenyl]amino]-2-oxoethyl]-6-methyl-2-oxo-2H-chromen-4-yl]-2-fluorophenyl]-2-propenoate]
4 | 206 to 209 °C | CCOC(=O)/C=C/c1cccc(-c2c(CC(=O)Nc3ccc(F)cc3C(F)(F)F)c(=O)oc3cc(C)c(Cl)cc23)c1 [Example 5, ethyl (2E)-3-[3-[6-chloro-3-[2-[[4-fluoro-2-(trifluoromethyl)phenyl]amino]-2-oxoethyl]-7-methyl-2-oxo-2H-chromen-4-yl]phenyl]-2-propenoate]
5 | 151 to 153 °C | CCOC(=O)/C=C/c1cccc(-c2c(CC(=O)Nc3ccc(F)cc3C(F)(F)F)c(=O)oc3cc(Cl)c(F)cc23)c1 [Example 6, ethyl (2E)-3-[3-[7-chloro-6-fluoro-3-[2-[[4-fluoro-2-(trifluoromethyl)phenyl]amino]-2-oxoethyl]-2-oxo-2H-chromen-4-yl]phenyl}-2-propenoate]
6 | 166 to 169 °C | CCOC(=O)/C=C/c1cccc(-c2c(CC(=O)Nc3ccc(F)cc3C(F)(F)F)c(=O)oc3cc(Cl)ccc23)c1 [Example 7, ethyl (2E)-3-[3-[7-chloro-3-[2-[[4-fluoro-2-(trifluoromethyl)phenyl]amino]-2-oxoethyl]-2-oxo-2H-chromen-4-yl]phenyl]-2-propenoate]
7 | 121 to 123 °C | CCOC(=O)CCc1cccc(-c2c(CC(=O)Nc3ccc(F)cc3C(F)(F)F)c(=O)oc3cc(Cl)c(C)cc23)c1 [Example 8, ethyl 3-[5-[7-chloro-3-[2-[[4-fluoro-2-(trifluoromethyl)phenyl]amino]-2-oxoethyl]-6-methyl-2-oxo-2H-chromen-4-yl]phenyl]propionate]
8 | 115 to 117 °C | CCOC(=O)CCc1cccc(-c2c(CC(=O)Nc3ccccc3C(F)(F)F)c(=O)oc3cc(Cl)c(C)cc23)c1 [Example 9, ethyl 3-[3-[7-chloro-6-methyl-3-[2-[[2-(trifluoromethyl)phenyl]amino]-2-oxoethyl]-2-oxo-2H-chromen-4-yl]phenyl]propionate]
9 | 158 to 160 °C | CCOC(=O)CCc1cccc(-c2c(CC(=O)Nc3ccc(F)cc3C(F)(F)F)c(=O)oc3cc(C)c(Cl)cc23)c1 [Example 10, ethyl 3-[3-[6-chloro-3-[2-[[4-fluoro-2-(trifluoromethyl)phenyl]amino]-2-oxoethyl]-7-methyl-2-oxo-2H-chromen-4-yl]phenyl]propionate]
10 | 142 to 144 °C | CCOC(=O)CCc1cccc(-c2c(CC(=O)Nc3ccc(F)cc3C(F)(F)F)c(=O)oc3cc(Cl)c(F)cc23)c1 [Example 11, ethyl 3-[3-[7-chloro-6-fluoro-3-[2-[[4-fluoro-2-(trifluoromethyl)phenyl]amino]-2-oxoethyl]-2-oxo-2H-chromen-4-yl]phenyl]propionate]
11 | 164 to 165 °C | CCOC(=O)CCc1cccc(-c2c(CC(=O)Nc3ccc(F)cc3C(F)(F)F)c(=O)oc3cc(Cl)ccc23)c1 [Example 12, ethyl 3-[3-[7-chloro-3-[2-[[4-fluoro-2-(trifluoromethyl)phenyl]amino]-2-oxoethyl]-2-oxo-2H-chromen-4-yl]phenyl]propionate]
12 | 163 to 164 °C | CCOC(=O)CCc1cccc(-c2c(CC(=O)Nc3ccc(F)cc3C(F)(F)F)c(=O)oc3ccccc23)c1 [Example 13, ethyl 3-[3-[3-[2-[[4-fluoro-2-(trifluoromethyl)phenyl]amino]-2-oxoethyl]-2-oxo-2H-chromen-4-yl]phenyl]propionate]
13 | 212 to 214 °C | Cc1cc2c(-c3cccc(CCC(=O)O)c3)c(CC(=O)Nc3ccc(F)cc3C(F)(F)F)c(=O)oc2cc1Cl [Example 14, 3-[5-[7-chloro-3-[2-[[4-fluoro-2-(trifluoromethyl)phenyl]amino]-2-oxoethyl]-6-methyl-2-oxo-2H-chromen-4-yl]phenyl]propionic acid]
14 | 252 to 254 °C | Cc1cc2c(-c3cccc(/C=C/C(=O)O)c3)c(CC(=O)Nc3ccccc3C(F)(F)F)c(=O)oc2cc1Cl [Example 15, (2E)-3-[3-[7-chloro-6-methyl-2-oxo-3-(2-oxo-2-[[2-(trifluoromethyl)phenyl]amino]ethyl)-2H-chromen-4-yl]phenyl]-2-propenoic acid]
15 | 272 to 274 °C | Cc1cc2oc(=O)c(CC(=O)Nc3ccc(F)cc3C(F)(F)F)c(-c3cccc(/C=C/C(=O)O)c3)c2cc1Cl [Example 16, (2E)-3-[3-[6-chloro-3-(2-[[4-fluoro-2-(trifluoromethyl)phenyl]amino]-2-oxoethyl)-7-methyl-2-oxo-2H-chromen-4-yl]phenyl]-2-propenoic acid]
16 | 245 to 247 °C | O=C(O)/C=C/c1cccc(-c2c(CC(=O)Nc3ccc(F)cc3C(F)(F)F)c(=O)oc3cc(Cl)c(F)cc23)c1 [Example 17, (2E)-3-[3-[7-chloro-6-fluoro-3-[2-[[4-fluoro-2-(trifluoromethyl)phenyl]amino]-2-oxoethyl]-2-oxo-2H-chromen-4-yl]phenyl]-2-propenoic acid]
17 | 254 to 257 °C | O=C(O)/C=C/c1cccc(-c2c(CC(=O)Nc3ccc(F)cc3C(F)(F)F)c(=O)oc3cc(Cl)ccc23)c1 [Example 18, (2E)-3-[3-[7-chloro-3-[2-[[4-fluoro-2-(trifluoromethyl)phenyl]amino]-2-oxoethyl]-2-oxo-2H-chromen-4-yl]phenyl]-2-propenoic acid]
18 | 277 to 279 °C | Cc1cc2c(-c3ccc(F)c(/C=C/C(=O)O)c3)c(CC(=O)Nc3ccc(Cl)cc3C(F)(F)F)c(=O)oc2cc1Cl [Example 19, (2E)-3-[5-[7-chloro-3-[2-[[4-chloro-2-(trifluoromethyl)phenyl]amino]-2-oxoethyl]-6-methyl-2-oxo-2H-chromen-4-yl]-2-fluorophenyl]-2-propenoic acid]
19 | 150 °C (dec.) | Cc1cc2c(-c3cccc(CCC(=O)O)c3)c(CC(=O)Nc3ccccc3C(F)(F)F)c(=O)oc2cc1Cl [Example 20, 3-[3-[7-chloro-6-methyl-2-oxo-3-(2-oxo-2-[[2-(trifluoromethyl)phenyl]amino]ethyl)-2H-chromen-4-yl]phenyl]propionic acid]
20 | 240 to 242 °C | Cc1cc2oc(=O)c(CC(=O)Nc3ccc(F)cc3C(F)(F)F)c(-c3cccc(CCC(=O)O)c3)c2cc1Cl [Example 21, 3-[3-[6-chloro-3-(2-[[4-fluoro-2-(trifluoromethyl)phenyl]amino]-2-oxoethyl)-7-methyl-2-oxo-2H-chromen-4-yl]phenyl]propionic acid]

— US20070179154A1, “Coumarin derivatives, process for their production and use thereof” (Takeda Pharmaceutical Company Limited, priority 2002, published 2007)
